Data: patent US20090068646A1, “METHODS AND KITS FOR DETECTING MUTATIONS” (PROMEGA CORPORATION, priority 2004, published 2009)
Like-named read-outs stand apart in the source and are kept apart here.

How the values were obtained:
Assay type in all cases: in vivo, C75BL/6 mice
[1] = test system: mononucleotide repeats; details: 50 mg/kg intraperitoneal, liver DNA
Procedure: (§1) Treatment of mice used in paraquat studies. […] mice were housed and inbred at the University of Wisconsin, with an average life span 30 months. Four groups of three mice were included in the study: 5-month old mice (young control or YC); 5-month old mice treated with paraquat; 24-month old mice (old age); and 24-month old mice treated with paraquat. Paraquat-treated animals received a single intraperitoneal injection of 50 mg/kg body weight dissolved in PBS 24 hours after their last feeding. Each mouse was sacrificed by cervical dislocation.
(§2) Tissue Preparation, DNA Extraction and Quantification. The entire liver from each mouse was dissected, washed with PBS, placed in a 1.5 ml Ependorf tube, snap frozen in liquid nitrogen, and stored at −80° C. DNA was prepared from the mouse liver tissue by using the DNA-IQ Tissue and Hair Extraction Kit (Promega Corporation, Madison, Wis.) and was quantified using the PicoGreen dsDNA Quantitative Kit (Molecular Probes, Eugene, Oreg.) following manufacturers protocols.
Detection of Mutations in Microsatellites using small pool PCR. […] The stability of four short mononucleotide repeats (mBAT-24, mBAT-26, mBat-30, mBAT-37) and three extended mononucleotide repeats (mBAT-59, mBAT-64 and mBAT-67) were evaluated.
SP-PCR was performed for mutation analysis using 1-2 copies of genomic DNA (6-12 pg). PCR cycles and conditions are the same as described above except that the annealing temperature was 58° C.
Identification of PCR Products. Separation and detection of amplified fragments was performed on an ABI PRISM® 3100 Genetic Analyzer following the manufacturer's protocol (Applied Biosystems, Foster City, Calif.). Data was analyzed with the GeneScan and Genotyper computer software packages (Applied Biosystems).
Statistical Analysis. Statistical analysis was done using the statistical Package Sigma Stat version 3, where P value was determined by using one-way ANOVA for each specific group, using Holm-Sidak method did comparisons between the groups.

[2] = test system: mtDNA; details: old age paraquat-treated group, three mice
Procedure: as §1, §2
mtDNA Deletion Detection. Based on the mouse mtDNA sequence, four fluorescence labeled primer pairs were designed to detect both wildtype sequences and mtDNA deletions.
PCR Conditions. […]
Identification of PCR Products. […] Data was analyzed with the GeneScan and Genotyper computer software packages (Applied Biosystems).

[3] = test system: mononucleotide repeats; details: for Mutation Freq / # Mutants: 50 mg/kg intraperitoneal, liver DNA
[4] = marker mBat-24, Old w/Paraquat (24-month old mice)
[5] = marker mBat-26, Young w/Paraquat (5-month old mice)
[6] = marker mBat-30, Old w/Paraquat (24-month old mice)
[7] = marker mBat-30, Young w/Paraquat (5-month old mice)
[8] = marker mBat-59, Old w/Paraquat (24-month old mice)
[9] = marker mBat-64, Young w/Paraquat (5-month old mice)
[10] = marker mBat-67, Young w/Paraquat (5-month old mice)
[11] = marker mBat-24, Young w/Paraquat (5-month old mice)
[12] = marker mBat-26, Old w/Paraquat (24-month old mice)
[13] = marker mBat-37, Old w/Paraquat (24-month old mice)
[14] = marker mBat-37, Young w/Paraquat (5-month old mice)
[15] = marker mBat-49, Old w/Paraquat (24-month old mice)
[16] = marker mBat-51a, Old w/Paraquat (24-month old mice)
[17] = marker mBat-51b, Old w/Paraquat (24-month old mice)
[18] = marker mBat-52, Old w/Paraquat (24-month old mice)
[19] = marker mBat-59, Young w/Paraquat (5-month old mice)
[20] = marker mBat-61a, Old w/Paraquat (24-month old mice)
[21] = marker mBat-64, Old w/Paraquat (24-month old mice)
[22] = marker mBat-66, Old w/Paraquat (24-month old mice)
[23] = marker mBat-66, Young w/Paraquat (5-month old mice)
[24] = marker mBat-67, Old w/Paraquat (24-month old mice)
[25] = paraquat-treated old age group, loci mBAT-59, mBAT-64, mBAT-66 or mBAT-67 combined

## C[n+]1ccc(-c2cc[n+](C)cc2)cc1 [Paraquat]
[1]; [4]
  # Mutants: 0
[1]; [5]
  Mutation Freq: 0.000
[1]; [6]
  Mutation Freq: 0.000
[1]; [7]
  # Mutants: 0
[1]; [8]
  # Mutants: 6
[1]; [9]
  Mutation Freq: 0
[1]; [10]
  Mutation Freq: 0
[2]
  mice showing Δ-mtDNA4977: All three
[3]; [4]
  Mutation Freq: 0.000
[3]; [11]
  # Mutants: 1
  Mutation Freq: 0.002
[3]; [12]
  # Mutants: 0
  Mutation Freq: 0.000
[3]; [5]
  # Mutants: 0
[3]; [6]
  # Mutants: 0
[3]; [7]
  Mutation Freq: 0.000
[3]; [13]
  # Mutants: 0
  Mutation Freq: 0.000
[3]; [14]
  # Mutants: 1
  Mutation Freq: 0.001
[3]; [15]
  # Mutants: 0
  Mutation Freq: 0.000
[3]; [16]
  # Mutants: 0
  Mutation Freq: 0.000
[3]; [17]
  # Mutants: 0
  Mutation Freq: 0.000
[3]; [18]
  # Mutants: 0
  Mutation Freq: 0.000
[3]; [8]
  Mutation Freq: 0.013
[3]; [19]
  # Mutants: 4
  Mutation Freq: 0
[3]; [20]
  # Mutants: 2
  Mutation Freq: 0.005
[3]; [21]
  # Mutants: 8
  Mutation Freq: 0.019
[3]; [9]
  # Mutants: 1
[3]; [22]
  # Mutants: 8
  Mutation Freq: 0.018
[3]; [23]
  # Mutants: 3
  Mutation Freq: 0
[3]; [24]
  # Mutants: 20
  Mutation Freq: 0.051
[3]; [10]
  # Mutants: 1
[3]; old paraquat-treated group, short mononucleotide repeats combined
  mutations detected in loci mBAT-24, mBAT-26, mBat-30, or mBAT-37: no mutations out of 1608 alleles
[3]; [25]
  mutant alleles / alleles assayed: 25/1649
  mutations in mononucleotide repeat alleles assayed: over 1.8%
